Test results from article PMC8214221, “Sequence determinants in the cathelicidin LL-37 that promote inflammation via presentation of RNA to scavenger receptors” (The Journal of Biological Chemistry, 2021).
Residues, ends and D or L forms follow the SMILES beside them.

How the values were obtained:
[1] = test system: normal human epidermal keratinocytes (NHEKs); assay: LDH release cytotoxicity assay in keratinocytes; format: cell-based; settings: minimal concentration giving 50% LDH release by NHEKs
Summary of the method: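 Normal human epidermal keratinocytes were exposed to LL-34 parent and alanine-substituted peptides. Cytotoxicity was read as LDH release in fresh culture supernatants after treatment, using a commercial kit, and reported as the minimal concentration showing toxicity.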

[2] = test system: U1 dsRNA binding on the surface of NHEKs; assay: Surface binding of Alexa 488-labeled U1 dsRNA to NHEKs; format: cell-based, human; settings: Alexa 488 U1 0.05-10 μg/ml + peptide 2.5 μM, 10 min on ice; fluorometer RFU, n = 3
Experimental: We also assayed the dynamics of binding of U1 dsRNA on the surface of NHEKs in the presence of LL-34 mutant peptides. NHEKs were exposed to fluorescent Alexa 488–labeled U1 at increasing concentrations (0.05–10 μg/ml) and LL-34 parent peptide, LL-34 I24A, LL-34 L31A, LL-34 K25A, and LL-34 proline at isoleucine position 20 (I20P) for 10 min on ice to allow for surface binding of U1 to cells in the presence of peptides (Fig. 5A).
Figure 5 Biophysical properties of binding of U1 dsRNA to LL-34 peptides and SRB1 protein.A, NHEKs were treated with Alexa 488–labeled U1 dsRNA or a combination of Alexa 488–labeled U1 dsRNA (0.05–10 μg/ml) and LL-34 peptides LL-34 parent, LL-34 I24A, LL-34 K25A, LL-34 L31A, and LL-34 I20P at 2.5 μM as shown. The cells were prechilled on ice for 15 min before the addition of U1 dsRNA and/or LL-34 peptides, and the surface binding of U1 dsRNA was allowed for 10 min. The amount of U1 dsRNA binding to NHEKs was assessed with a fluorometer, and data are represented as relative fluorescence units (RFUs) (n = 3). B, NHEKs were similarly treated with Alexa-labeled U1 dsRNA (1.5 μg/ml) and/or unlabeled U1 dsRNA (15 μg/ml) with the addition of LL-34 parent peptide at 2.5 μM. The experiment was performed on ice for 10 min, and the relative binding of Alexa 488 U1 dsRNA was assessed on a fluorometer and is shown as RFU (n = 3) (∗p < 0.05) one-way ANOVA. C, SAXS spectra of LL-34 peptides LL-34 parent, LL-34 F5A, LL-34 I24A, and LL-34 L31A incubated with U1 dsRNA. The peptide-U1 dsRNA (P/R) ratio is varied at 1 and 2 for all conditions. The U1 dsRNA interhelical spacing (Q) was calculated by the peak position. The domain size (L) was calculated by the full width at half maximum of the first peak. LL-34, 34-amino acid peptide; NHEKs, normal human epidermal keratinocytes; SAXS, small-angle X-ray scattering.

Structure (SMILES): CC[C@H](C)[C@H](NC(=O)[C@H](CCCCN)NC(=O)[C@H](CCC(=O)O)NC(=O)[C@H](CCCCN)NC(=O)[C@H](CO)NC(=O)[C@H](CCCCN)NC(=O)[C@H](CCCNC(=N)N)NC(=O)[C@H](Cc1ccccc1)NC(=O)[C@H](Cc1ccccc1)NC(=O)[C@H](CC(=O)O)NC(=O)CNC(=O)[C@H](CC(C)C)NC(=O)[C@@H](N)CC(C)C)C(=O)NCC(=O)N[C@@H](CCCCN)C(=O)N[C@@H](CCC(=O)O)C(=O)N[C@@H](Cc1ccccc1)C(=O)N[C@@H](CCCCN)C(=O)N[C@@H](CCCNC(=N)N)C(=O)N[C@H](C(=O)N[C@H](C(=O)N[C@@H](CCC(N)=O)C(=O)N[C@@H](CCCNC(=N)N)C(=O)N[C@H](C(=O)N[C@@H](C)C(=O)N[C@@H](CC(=O)O)C(=O)N[C@@H](Cc1ccccc1)C(=O)N[C@@H](CC(C)C)C(=O)N[C@@H](CCCNC(=N)N)C(=O)N[C@@H](CC(N)=O)C(=O)N[C@@H](CC(C)C)C(=O)N[C@H](C(=O)N1CCC[C@H]1C(=O)N[C@@H](CCCNC(=N)N)C(=O)O)C(C)C)[C@@H](C)CC)C(C)C)[C@@H](C)CC [LL-34—K25A] (H-LLGDFFRKSKEKIGKEFKRIVQRIADFLRNLVPR-OH)
- Minimal cytotoxic concentration in NHEK (LD50) [1]: 10 µM
- Binding of Alexa 488-labeled U1 dsRNA on the NHEK cell surface [2]: enhanced binding of U1 on the cell surface
